Experimental data published in patent EP0635577B1, “Screen for inhibitors of melanin biosynthesis” (BASF AKTIENGESELLSCHAFT, priority 1993, dated 1995).
Counter-ions that a name gives are not always drawn.

Test system: Cladosporium cucumerinum
Test: melanin biosynthesis inhibition screen, disk diffusion assay on solidified culture
Assay type: cell-based
Conditions: not given
Experimental: Potato dextrose medium (PDM) for the screening test is prepared by melting
The mixture is autoclaved as 150 ml aliquots at 121°C for 25 minutes.
A chloramphenicol stock solution is prepared to contain 15 mg chloramphenicol per mL absolute ethanol and is stored at -20°C.
Conidia from Cladosporium cucumerinum, 10^7/mL in 0.03% Tween 20™, retain their viability for at least 12 weeks of storage in 1.8 ml cryovials at -85°C. Inoculum for running the screen are raised once every three months and stored without a cryoprotectant at the working concentration of 10^7 conidia/mL.
Fresh inoculum suspensions are prepared from conidial suspensions stored at -85°C. A cryovial is thawed by hand-heat, and 200 uL spread on the surface of PDA in 9 cm Petri dishes. Plates are placed in a resin box (to prevent fungal escape) and incubated at room temperature, 40 cm below laboratory fluorescent lights. Seven days later conidia are collected. Five mL of 0.03% Tween 20™ is added to each plate, and the conidia are released by rubbing the mycelium with a glass rod. The suspension is passed through a layer of sterile Miracloth™ and the concentration adjusted to 10^7 conidia/mL in 0.03% Tween 20™ using a haemocytometer. Aliquots of 1 mL are dispensed into cryovials and placed in a polystyrene holder to freeze slowly to -85°C.
For the test, 150 mL of PDM is cooled to 35°C, and 0.1 mL of chloramphenicol stock solution is added by gentle swirling. A vial of C. cucumerinum conidial suspension (10^7 conidia/ml in Tween 20™) thawed with hand-heat is mixed into the growth medium using gentle swirling. The mixture is poured immediately into a Biotray, and the agar is allowed to solidify.
Test compounds are applied to 0.63 cm (¼ inch) filter disks. Each test includes a positive control, 200 ng tricyclazole in 20% dimethyl sulphoxide (DMSO). The plate is incubated at room-temperature (∼23°C) 40 cm below laboratory fluorescent lights. The plate is read 40 hours later. […] The Biotrays are autoclaved before disposal.
The compounds are applied as 20 ul droplets from a 1 mg/ml stock solution.

Compound | Observation: inhibits, radius cleared | Observation
CN1C(=O)[C@]23CC4=CC=C[C@H](O)[C@H]4N2C(=O)[C@@]1(CO)SS3 [Gliotoxin] | inhibits, 17 mm radius cleared | –
C[C@@H]1C[C@@H]([C@H](O)CC2CC(=O)NC(=O)C2)C(=O)[C@@H](C)C1 [Cycloheximide] | inhibits, 22 mm radius cleared | –
CN[C@H](CC(C)C)C(=O)N[C@H]1C(=O)N[C@@H](CC(N)=O)C(=O)N[C@H]2C(=O)N[C@H]3C(=O)N[C@H](C(=O)N[C@H](C(=O)O)c4cc(O)cc(O)c4-c4cc3ccc4O)[C@H](O)c3ccc(c(Cl)c3)Oc3cc2cc(c3O[C@@H]2O[C@H](CO)[C@@H](O)[C@H](O)[C@H]2O[C@H]2C[C@](C)(N)[C@H](O)[C@H](C)O2)Oc2ccc(cc2Cl)[C@H]1O [Vancomycin HCl] | – | no effect on growth or pigmentation

Same assay, conditions: Antifungal Panel; effect on growth and pigmentation in words; 20 ul droplets from a 1 mg/ml stock solution on filter disk; read 40 hours later

Compound | Observation
COCC(=O)N(c1c(C)cccc1C)C(C)C(=O)OC (centres unmarked) [Metalaxyl] | no effect on growth or pigmentation
C[C@@H]1[C@H](O)[C@@H](C)/C=C/C=C/C=C/C=C/C=C/C=C/C=C/[C@H](O[C@@H]2O[C@H](C)[C@@H](O)[C@H](N)[C@@H]2O)C[C@@H]2O[C@](O)(C[C@@H](O)C[C@@H](O)[C@H](O)CC[C@@H](O)C[C@@H](O)CC(=O)O[C@H]1C)C[C@H](O)[C@H]2C(=O)O [Amphotericin B] | no effect on growth or pigmentation

Same assay, conditions: Antifungal Panel; growth inhibition zone; 20 ul droplets from a 1 mg/ml stock solution on filter disk; read 40 hours later

Compound | Observation: inhibits, radius cleared
Cc1cccc(N(C)C(=S)Oc2ccc3ccccc3c2)c1 [Tolnaftate] | inhibits, 13 mm radius cleared
CCCCNC(=O)n1c(NC(=O)OC)nc2ccccc21 [Benomyl] | inhibits, 31 mm radius cleared
C[C@@H]([C@H](N)C(=O)N[C@H](C(=O)O)[C@H]1O[C@@H](n2ccc(=O)[nH]c2=O)[C@H](O)[C@@H]1O)[C@H](O)c1ccc(O)cn1 [Nikkomycin] | inhibits, 38 mm radius cleared
COC(=O)c1ccccc1S(=O)(=O)NC(=O)Nc1nc(C)cc(C)n1 [Sulfometuron methyl] | inhibits, 6 mm radius cleared
CC(C)(C)C(O)/C(=C\c1ccc(Cl)cc1Cl)n1cncn1 (centres unmarked) [Diniconazole] | inhibits, 27 mm radius cleared
CP(=O)(O)CC[C@H](N)C(=O)O [Phosphenothricin] | inhibits, 20 mm radius cleared
CCCCCCCCCCCCCN1CC(C)OC(C)C1 (centres unmarked) [Tridemorph] | inhibits, 6 mm radius cleared
Nc1nc[nH]n1 [Amino-triazole] | inhibits, 13 mm radius cleared
Antimycin | inhibits, 13 mm radius cleared
Noconazole | inhibits, 8 mm radius cleared
OC(c1ccc(Cl)cc1)(c1cncnc1)c1ccccc1Cl (centres unmarked) [Fenarimole] | inhibits, 22 mm radius cleared
Clc1ccc(COC(Cn2ccnc2)c2ccc(Cl)cc2Cl)c(Cl)c1 (centres unmarked) [Miconazole] | inhibits, 31 mm radius cleared

Same assay, conditions: C. cucumerinum Antibiotic Panel; effect on growth and pigmentation in words; screen of Example 1

Compound | Observation
Dermostatin | no effect on growth or pigmentation
CCCCC[C@@H](O)[C@H]1C(=O)O[C@H](C)[C@@H](O)/C=C/C=C/C=C/C=C/C=C(\C)[C@@H](O)[C@H](O)[C@H](O)C[C@H](O)C[C@H](O)C[C@H](O)C[C@H](O)C[C@@H]1O [Pentamycin] | no effect on growth or pigmentation
Tetrahydro Spiramycin Base | no effect on growth or pigmentation
Flavofungin | no effect on growth or pigmentation
Protomycin/Streptimidone | no effect on growth or pigmentation
Neomycin Sulfate | no effect on growth or pigmentation
Hamycin | no effect on growth or pigmentation
Aureofungin | no effect on growth or pigmentation
CN(C)c1ncnc2c1ncn2[C@@H]1O[C@H](CO)[C@@H](N)[C@H]1O [Puromycin Aminonucleoside] | no effect on growth or pigmentation
C[C@@H]1C[C@@H]2CCCC(O)=C2C(=O)O1 [Ramulosin] | no effect on growth or pigmentation
C[C@H]1CCC/C=C/[C@@H]2C[C@H](O)C[C@H]2[C@H](O)/C=C/C(=O)O1 [Ascotoxin] | no effect on growth or pigmentation
CSC[S@+]([O-])C[C@H](CO)NC(=O)/C=C/c1c(C)[nH]c(=O)[nH]c1=O [Sparsomycin] | no effect on growth or pigmentation
Ristocedin | no effect on growth or pigmentation

Same assay, conditions: C. cucumerinum Antibiotic Panel; growth inhibition zone; screen of Example 1

Compound | Observation: inhibits, radius cleared
Thioaurin | inhibits, 16 mm radius cleared
CC1CCC(=O)C=CC(=O)OC(C)CCC(=O)C=CC(=O)O1 (centres unmarked) [Pyrenophorin] | inhibits, 12 mm radius cleared
CN[C@@H]1C[C@H](N)[C@@H](O)[C@H](O[C@@H]2O[C@H](CO)[C@H](O)[C@@H]3OC4(O[C@H]23)O[C@H]([C@@H](N)CO)[C@H](O)[C@H](O)[C@H]4O)[C@H]1O (some centres unmarked) [Destomycin A] | inhibits, 18 mm radius cleared
C[C@H]1C[C@H](C)C(=O)[C@@H]([C@H](O)CC2CC(=O)NC(=O)C2)C1 [Naramycin B] | inhibits, 15 mm radius cleared
Cc1cc(O)c2c(c1)C(=O)[C@]13C(=C2O)C(=O)[C@@H]2[C@H](O)[C@H]1[C@@H]1[C@@H](O)[C@H]3C(=O)C3=C(O)c4c(O)cc(C)cc4C(=O)[C@]312 [Rugulosin] | inhibits, 9 mm radius cleared
C/C=C/[C@H]1O[C@@](O)([C@@H](C)[C@H](O)[C@H](C)[C@H]2OC(=O)/C(OC)=C/C(C)=C/[C@@H](C)[C@@H](O)[C@@H](CC)[C@@H](O)[C@H](C)C/C(C)=C/C=C/[C@@H]2OC)C[C@@H](O[C@H]2C[C@@H](O)[C@H](OC(N)=O)[C@@H](C)O2)[C@@H]1C [Folimycin] | inhibits, 4 mm radius cleared

Test system: wild-type strain M. grisea
Test: not given
Conditions: 15 ng in 1.5% acetone; onion epidermal pieces; 25°C for 24 hours

Compound | inhibition of penetration [%]
Cc1cccc2sc3nncn3c12 [tricyclazole] | 100

Same assay, conditions: in the presence of the inhibitor; about 90 to 95% of germinating wild-type conidia penetrate without it

Compound | penetration of freshly harvested onion epidermis by wild-type M. grisea
Cc1cccc2sc3nncn3c12 [tricyclazole] | no penetration
